The target in the experiment is Secreted effector protein (Yersinia pestis, UniProt O68720). Kind of experiment: Inhibition of Yersinia pestis YopH after 15 mins by pNPP hydrolysis assay.

The text below walks through data of ChEMBL document CHEMBL1157897, “A rapid oxime linker-based library approach to identification of bivalent inhibitors of the Yersinia pestis protein-tyrosine phosphatase, YopH” (Bioorg Med Chem Lett, 2010).

Secreted effector protein, sequence (O68720 whole entry): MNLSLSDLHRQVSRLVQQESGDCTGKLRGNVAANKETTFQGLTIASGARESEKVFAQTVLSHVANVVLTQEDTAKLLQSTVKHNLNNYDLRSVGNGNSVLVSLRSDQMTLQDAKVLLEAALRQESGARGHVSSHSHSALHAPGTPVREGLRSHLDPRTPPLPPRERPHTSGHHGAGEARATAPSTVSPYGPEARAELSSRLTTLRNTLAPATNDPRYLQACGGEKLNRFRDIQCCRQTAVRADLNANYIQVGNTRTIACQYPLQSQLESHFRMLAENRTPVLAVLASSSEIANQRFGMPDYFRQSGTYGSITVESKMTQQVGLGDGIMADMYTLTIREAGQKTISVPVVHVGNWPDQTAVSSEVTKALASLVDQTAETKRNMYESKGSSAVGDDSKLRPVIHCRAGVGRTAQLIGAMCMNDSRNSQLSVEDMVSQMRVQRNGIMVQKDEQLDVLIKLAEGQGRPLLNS

The compound `O=C(O)c1cc(/C=N/OCCCCCCCCCCO/N=C/c2ccc(OCc3ccccc3)cc2)ccc1O` showed an IC50 of 2400 nM.
